# According to patent US20060063930A1, “Compositions and methods comprising proteinase activated receptor antagonists” (priority 2004, published 2006):
# Where a name gives a salt, the structure may show the parent alone. Where no end group is shown, it is not given here. [ ]: non-standard residue; d: D form. Sta = CC(C)C[C@H](N)[C@@H](O)CC(=O)O; Hyp = O=C(O)[C@@H]1C[C@@H](O)CN1
# Test system: PAR-2
# Assay: Inhibition of PAR-2 activating peptide (AP2) calcium signaling in cells pretreated with antagonist
# Type: cell-based, human
# Design: key to PAR-2 AP2 Signaling Treated/Control (T/C) / PAR-2 AP2 Signaling Treated/Control: AUC of calcium mobilization, treated ÷ control wells
# Settings: mimetic antagonists; AUC of calcium mobilization treated/control; initially screened at 1 mM compound
# Protocol: In order to assess the potential of peptides and molecules selected above to block PAR-2 signaling, cells were pretreated with potential antagonist peptides for a predetermined amount of time and were subsequently treated with various GPCR agonists. Confluent Lewis lung carcinoma (LLC) cells were loaded for 30-60 minutes with the fluorescent dye Fluo-4. Final concentration 4 uM Fluo-4, 0.02% pluronic acid in physiological buffer. Cells were then washed with assay buffer, (HBSS containing 1 mM CaCl2, 1 mM MgSO4, and 2.5 mM probenecid). Cells were stimulated with various doses of PAR-2 activating peptide, PAR-1 activating peptide or ATP. Fluorescence was monitored using a Wallac 1470 fluorescent plate reader. (See Al-ani et. al Journal of Pharmacology and Experimental Therapeutics 290:2, 753-760). Additional compound screening was performed using U87-MG human glioma cells. In this assay cells were labeled with FLIPR Calcium 3 dye (Component A), which was dissolved in 10 mls of Assay Buffer without Probenecid. Loading buffer was prepared by diluting Component A with an additional 90 mls of Assay Buffer without Probenecid, giving a total volume of a 100 ml. For plate loading, 11 mls of FLIPR Calcium 3 dye (Component A) is placed into a 15 ml conical tube+110 μl of 250 mM Probenecid, at a final in-well working volume of 2.5 mM. Finally, 50 μl of Calcium 3 dye was added wells containing 100 μl media, and incubated 1 hr, 37° C., 5% CO2. Calcium signaling was then measured using a Flexstation II (Molecular Devices) following manufacturer's instructions.
# Potential antagonist compounds were initially screened at 1 mM compound concentration. Those compounds with activity were then subjected to additional confirmatory testing. Activity is reported as treated/controlled (T/C) where the area under the curve (AUC) of calcium mobilization plots in treated wells is divided by the AUC of calcium mobilization plots in control wells to generate a measure of inhibition.
row,Molecule,PAR-2 AP2 Signaling Treated/Control
1,"CC(C)CC(=O)Nc1ccc(NC(=O)CCCCCN)cc1 [ENMD-1391, N-(4-(3-methylbutanamido)phenyl)-6-aminohexanamide]",0.01
2,"Br.CC(C)CC(=O)NCCNC(=O)CCCCCN [ENMD-1393, N-(2-(3-methylbutanamido)ethyl)-6-aminohexan-amide hydrobromide]",0.81
3,"NCCCCCCn1c(=O)n(CCC2CCCCC2)c2ccccc21 [ENMD-1518, 1-(6-aminohexyl)-3-[(2-cyclohexyl)ethyl]benzimidazol-(2)-one]",0.58
4,NCCCCCCn1cccc1C(=O)NCC1CCCCC1 [ENMD-1570],0.05
5,"CC(C)C(=O)N1CCN(C(=O)CCCCCN)CC1 [ENMD-1035, N′-[2′-methylpropanoyl]-N^4-[6′-aminohexanoyl]-piperazine]",0.32
6,"Nc1ccc(CC(=O)N2CCN(C(=O)Cc3ccccc3)CC2)cc1 [ENMD-1075, N^1-2-phenylethanoyl-N^4-[2-(4-aminophenyl)-ethanoyl]-piperazine]",0.71
7,"CC(C)CNC(=O)Cc1csc(NC(=O)CCCCCN)n1 [ENMD-1554, 6-amino-hexanoic acid [4-(isobutylcarbamoyl-methyl)-thiazol-2-yl]-amide]",0.44
8,NCCCCNC(=O)c1ccc(NCC2CCCCC2)nc1 [ENMD-1538],0.48
9,"NCCCNC(=O)c1ccc(OCC2CCCCC2)cc1 [ENMD-1409, N-(3-aminopropyl)-4-(cyclohexylmethoxy)-benzamide]",0.45
10,"NCCCCCCNC(=O)c1cc(CNC(=O)CC2CCCCC2)on1 [ENMD-1557, 5-[(2-Cyclohexyl-acetylamino)-methyl]-isoxazole-3-carboxylic acid (6-amino-hexyl)-amide]",0.52
11,CC(C)CC(=O)N1CC2CN(C(=O)Cc3ccc(N)cc3)CC2C1 (centres unmarked) [ENMD-1763],0.83
12,CC(C)CC(=O)N1CC2CN(C(=O)CCCCCN)CC2C1 (centres unmarked) [ENMD-1764],0.96
13,"CC(C)Nc1ccc(CCn2c(=O)n(CCC3CCCCC3)c3ccccc32)cc1 [ENMD-1564, 1-[4-(isopropylamine)-phenethyl]-3-(2-cyclo-hexylethyl)-1H-benzo[d]imidazole-2(3H)-one]",1.16
14,"NCCCCCC(=O)N1CCOC(C(=O)NCC2CCCCC2)C1 (centres unmarked) [ENMD-1523, 4-(6-Amino-hexanoyl)-morpholine-2-carboxylic acid cyclohexylmethyl-amide]",0.54
15,"CC(C)CCC(=O)N1CCN(C(=O)CCCCCN)CC1 [ENMD-1041, N^1-[4′-methylpentanoyl]-N^4-[6′-aminohexanoyl]-piperazine]",0.17
16,"NCCCCCCn1cc(CCC2CCCCC2)nn1 [ENMD-1520, 1-(6-aminohexyl)-4-(2-cyclohexylethyl)-1,2,3-triazole]",0.36
17,"O=C(Cc1ccccc1)N1CCN(C(=O)Cc2cnc[nH]2)CC1 [ENMD-1076, 1-(4-(2-(1H-imidazol-4-yl)acetyl)piperazin-1-yl)-1-benzyl-amide]",0.14
18,"NCCCOc1ccc(C(=O)NCC2CCCCC2)cc1 [ENMD-1411, 4-(3-aminopropoxy)-N-(cyclohexylmethyl)-benzamide]",0.43
19,"O=C(Cc1cn(CCCCN2C(=O)c3ccccc3C2=O)cn1)NC1CCCCC1 [ENMD-1535, N-cyclohexyl-2-(1-(4-(1,3-dioxoisoindolin-2-yl)butyl)-1H-imidazol-4-yl)acetamide]",0.46
20,"CC(C)CC(=O)Nc1nc(CC(=O)NCCCCCN)cs1 [ENMD-1549, N-{4-[(5-Amino-pentylcarbamoyl)-methyl]-thiazol-2-yl}-3-methyl-butyramide]",0.26
21,"NCCCCCNc1cnc(C(=O)NCC2CCCCC2)cn1 [ENMD-1775, cyclohexylmethyl-6-(5-aminopentaneamino)-2-pyrazine amide]",0.90

row,Molecule,PAR-2 AP2 Signaling Treated/Control
1,"CC(C)CC(=O)Nc1cc(C(=O)NCCCCCCN)n[nH]1 [ENMD-1550, 5-(3-methyl-butyrylamino)-1H-pyrazole-3-carboxylic acid (6-amino-hexyl)-amide]",0.63
2,"CC[C@@H](C)C(=O)N1CCN(C(=O)CCCCCN)CC1 [ENMD-1034, N^1-[R-2-methylbutanoyl]-N^4-[6′-aminohexanoyl]-piperazine]",0.39
3,"CC(C)CCn1c(=O)n(CCc2ccc(N)cc2)c2ccccc21 [ENMD-1573, 1-(4-aminophenethyl)-3-isopentyl-1H-benzo[d]imidazole-2(3H)-one]",0.01
4,"Cl.NC1CCC(C(=O)Nc2ccc(NC(=O)CC3CCCCC3)cc2)C1 (stereo in doubt) [ENMD-1768, (1R,3S)-N-(4-(2-cyclohexylacetamido)phenyl)-3-aminocyclopentanecarboxamide hydrochloride]",0.10
5,"Cl.O=C(CC1CCCCC1)Nc1ccc(NC(=O)C2CCCNC2)cc1 (centres unmarked) [ENMD-1771, N-(4-(2-cyclohexylacetamido)phenyl) piperidine-3-carboxamide hydrochloride]",0.05
6,"CC(C)CNC(=O)c1ccc(OCCCN)cc1 [ENMD-1410, 4-(3-aminopropoxy)-N-isobutyl-benzamide]",0.55
7,"NCCCCCNC(=O)c1ccc(C(=O)NCC2CCCCC2)cc1 [ENMD-1766, N^1-(5-aminopentyl)-N-4-(cyclohexylmethyl)-terephthalamide]",0.73
8,"CC(C)CCCC(=O)N1CCN(C(=O)CCCCCN)CC1 [ENMD-1038, N^1-[5′-methylhexanoyl]-N^4-[6′-aminohexanoyl]-piperazine]",0.35
9,"O=C(Cc1cccnc1)N1CCN(C(=O)CC2CCCCC2)CC1 [ENMD-1074, 1-(4-(2-cyclohexylacetyl)piperazin-1-yl)-2-(pyridin-3-yl)-acetaldehyde]",0.35
10,"Cl.O=C(CC1CCCCC1)N1CCN(C(=O)C2CCNCC2)CC1 [ENMD-1770, N^1-2-cyclohexylethanoyl-N-4-piperidine-4-carbonyl-piperazine hydrochloride]",0.91
11,"CC(C)CCn1c(=O)n(CCc2ccc(NC(C)C)cc2)c2ccccc21 [ENMD-1563, 1-[4-(isopropylamine)-phenethyl]-3-isopentyl-1H-benzo[d]imidazole-2(3H)-one]",0.62
12,"Cl.O=C(CC1CCCCC1)Nc1ccc(NC(=O)C2CCNCC2)cc1 [ENMD-1772, N-(4-(2-cyclohexylacetamido)phenyl) piperidine-4-carboxamide hydrochloride]",0.73
13,"CC(C)CC(=O)NCc1cc(C(=O)NCCCCCCN)no1 [ENMD-1556, 5-[(3-methyl-butyrylamino)-methyl]-isoxazole-3-carboxylic acid (6-amino-hexyl)-amide]",0.57
14,NCCCCCC(=O)N1CC2CN(C(=O)CC3CCCCC3)CC2C1 (centres unmarked) [ENMD-1776],0.82
15,"NCCCCC(=O)NCc1cc(C(=O)NCC2CCCCC2)no1 [ENMD-1558, 5-[(5-amino-pentanoylamino)-methyl]-isoxazole-3-carboxylic acid cyclohexylmethyl-amide]",0.60
16,"CC(C)CC(=O)N1CCN(C(=O)CCCCCNC(=N)N)CC1 [ENMD-1067, 4-(3-methylbutanoyl)piperazin-1-(5′-carbamoyl-pentylguanidine)]",0.77
17,"NCCCCCCNC(=O)c1cccn1CC1CCCCC1 [ENMD-1540, N-(6-aminohexyl)-1-(2-cyclohexylmethyl)-2-pyrrolecarboxamide]",0.05
18,"CC(C)CC(=O)N1CCN(C(=O)Cc2cnc[nH]2)CC1 [ENMD-1066, 1-(4-(2-(1H-imidazol-4-yl)acetyl)piperazin 1-yl)-3-methylbutan-1-amide hydrochloride]",0.20
19,"CC(C)CNC(=O)c1cccn1CCCCCCN [ENMD-1569, 1-(6-aminohexyl)-2-[N′-isobutyl]-pyrrole carboxamide]",0.77
20,"CC(C)CC(=O)NC1CN(C(=O)CCCCCN)C1 [ENMD-1516, N-(6-amino-1-hexanoylazetidin3-yl)-3-methylbutanamide]",0.87

# Same assay, conditions: peptides; AUC of calcium mobilization treated/control; initially screened at 1 mM compound
row,Molecule,PAR-2 AP2 Signaling Treated/Control (T/C)
1,IG-dK (Ile-Gly-[dK]) [ENMD-1087],0.33
2,L-HyP-GK (L[Hyp]GK) [ENMD-1061],1.16
3,L-Sta-K (Leu-[Sta]-Lys) [ENMD-1056],1.35
4,LIG-dK (LIG[dK]) [ENMD-1384],0.16
5,LIGN [ENMD-1047],0.88
6,LIGH [ENMD-1054],0.83
